Data as given in US20040175763A1, “Crohn's disease antibody-binding peptide and method of examining crohn's disease” (priority 2001, published 2004).

Key:
Crohn's disease antibody = test: Reaction inhibition test with one amino acid-substituted MAP peptides on CDP3 MAP plate (Example 6(2)); type: binding, human; conditions: inhibitor MAP peptide 100 μg/mL
Protocol: Referring to the amino acid sequence of CDP peptide, in order to determine the sequence necessary for the specific reactivity to Crohn's disease antibody, the following reaction inhibition test was performed using each of the one amino acid-substituted MAP peptides prepared as above as the reaction inhibitor.
More particularly, using the MAP plate prepared by immobilizing the MAP peptide of CDP3 (see Example 2(1)) as the antigen plate, the test was performed by 3 reaction steps. In the primary reaction, the Crohn's disease patient serum was diluted 100-fold with a sample diluent containing the one amino acid-substituted MAP peptide in a concentration of 100 μg/mL (0.1 M Tris-buffer containing 0.5 M sodium chloride, 1.5% casein, 2% normal goat serum and 0.2% Tween 20) and reacted at 25° C. for one hour. In the secondary reaction, 100 μL/well of the primary reaction mixture was added to the plate and reacted at 25° C. for one hour, after which the plate was washed 3 times. In the tertiary reaction, 100 μL/well of HRP-labeled anti-human IgG (Fc)-specific antibody diluted 5,000-fold in an enzyme-labeled antibody diluent (Tris buffer containing 0.14 M sodium chloride, 0.5% BAS, 5% normal goat serum and 0.05% Tween 20) was added to the plate, and reacted at 25° C. for 1 hour, followed by 3 rounds of washing. Detection was performed as in Example 2(1) to measure the reaction-inhibiting activity of the one amino acid-substituted MAP peptide.

[1] = system: Crohn's disease antibody (serum IgG); test: ELISA using each branched multiple antigenic peptide (MAP peptide) as the antigen; type: binding, human; conditions: for Positive rate Ulcerative colitis patients: 20 ulcerative colitis patient sera; for Positive rate Ulcerative colitis patients / Positive rate Healthy volunteers: cut-off mean OD+5SD of 48 healthy volunteer sera; for reaction with ulcerative colitis patient sera or healthy volunteer sera: 20 ulcerative colitis, 48 healthy volunteer serum samples; for Positive rate Healthy volunteers: 48 healthy volunteer sera
Protocol: Using each MAP peptide (the MAP peptides of CDP-1, CDP-2, CDP-3, and CDP-4; see FIG. 2) obtained in Example 1 as the antigen peptide, the reactivity to each serum sample (Crohn's disease patient serum, ulcerative colitis patient serum, and healthy volunteer serum) was evaluated by ELISA.
In the first place, each MAP peptide was immobilized on a 96-well microtiter plate. Thus, this immobilization was carried out in accordance with the protocol which comprises dissolving each MAP peptide in bicarbonate buffer (50 mM, pH 9.6) at a concentration of 1 μg/ml to prepare a MAP solution, adding the solution to the antigen plate, 100 μl per well, then leaving the plate sitting at 4° C. overnight, washing it, adding 300 μl of casein solution ((D)-PBS containing 0.1% casein and 1% Triton X-100), and leaving the plate sitting again at 4° C. overnight.
(i) Using the MAP plates carrying the respective MAP peptides immobilized, the reactivity of each MAP peptide to 20 Crohn's disease patient serum samples, 20 ulcerative colitis patient serum samples and 48 healthy volunteer serum samples was verified by ELISA.
More particularly, a primary reaction was carried out by adding mixture containing 1 μl of the serum antibody and 100 μl of casein solution to each well of the MAP plate, and allowing the reaction to proceed at 37° C. for one hour. After completion of the primary reaction, the plate was washed 4 times and a 20,000-fold dilution of HRP-labeled anti-human IgG(Fc)-specific antibody in casein solution was added into the wells and incubated at 37° C. for one hour to carry out a secondary reaction. After completion of the secondary reaction, the plate was washed 4 times and a color development reaction was carried out. For detection, 100 μl of TMB solution was added to the plate and reacted at room temperature for 10 minutes, at the end of which time the reaction was stopped by adding 100 μl of TMB stop solution (1N sulfuric acid). The absorbance at OD 450 nm was measured with a plate reader to investigate the reactivity to each MAP plate for each serum. […] It can also be seen in FIG. 3 that the reactivity of each MAP peptide to Crohn's disease patient serum varied among different kinds of MAP peptides without consistency.
(ii) Then, using a large number of serum samples (96 Crohn's disease patient serum samples, 20 ulcerative colitis patient serum samples, and 48 healthy volunteer serum samples), the reactivity of the above MAP peptides (the MAP peptides of CDP-1, CDP-2, CDP-3, and CDP-4) was investigated by the same method as in (i) to evaluate the specificity of the respective peptides to Crohn's disease patient sera.

Substance	reaction-inhibiting activity, Patient serum sample No. 2 (Crohn's disease antibody)	reaction-inhibiting activity, Patient serum sample No. 7 (Crohn's disease antibody)	reaction-inhibiting activity, Patient serum sample No. 8 (Crohn's disease antibody)	Positive rate Ulcerative colitis patients [1]	reaction with ulcerative colitis patient sera or healthy volunteer sera [1]	Positive rate Healthy volunteers [1]
A A G E L R Q S D G Q Y Q M (AAGELRQSDGQYQM) [CDP3-2]	+++ (+++: reaction-inhibiting activity = 70%)	+++ (+++: reaction-inhibiting activity = 70%)	+++ (+++: reaction-inhibiting activity = 70%)			
A E A E L R Q S D G Q Y Q M (AEAELRQSDGQYQM) [CDP3-3]	+++ (+++: reaction-inhibiting activity = 70%)	+++ (+++: reaction-inhibiting activity = 70%)	+++ (+++: reaction-inhibiting activity = 70%)			
A E G A L R Q S D G Q Y Q M (AEGALRQSDGQYQM) [CDP3-4]	+++ (+++: reaction-inhibiting activity = 70%)	+++ (+++: reaction-inhibiting activity = 70%)	+++ (+++: reaction-inhibiting activity = 70%)			
A E G E A R Q S D G Q Y Q M (AEGEARQSDGQYQM) [CDP3-5]	+++ (+++: reaction-inhibiting activity = 70%)	+++ (+++: reaction-inhibiting activity = 70%)	+++ (+++: reaction-inhibiting activity = 70%)			
A E G E L A Q S D G Q Y Q M (AEGELAQSDGQYQM) [CDP3-6]	+++ (+++: reaction-inhibiting activity = 70%)	+++ (+++: reaction-inhibiting activity = 70%)	+++ (+++: reaction-inhibiting activity = 70%)			
A E G E L R A S D G Q Y Q M (AEGELRASDGQYQM) [CDP3-7]	− (−: reaction-inhibiting activity = 30%)	− (−: reaction-inhibiting activity = 30%)	− (−: reaction-inhibiting activity = 30%)			
A E G E L R Q A D G Q Y Q M (AEGELRQADGQYQM) [CDP3-8]	+++ (+++: reaction-inhibiting activity = 70%)	+++ (+++: reaction-inhibiting activity = 70%)	+++ (+++: reaction-inhibiting activity = 70%)			
A E G E L R Q S A G Q Y Q M (AEGELRQSAGQYQM) [CDP3-9]	− (−: reaction-inhibiting activity = 30%)	+ (+: reaction-inhibiting activity between 30% and 50%)	− (−: reaction-inhibiting activity = 30%)			
A E G E L R Q S D A Q Y Q M (AEGELRQSDAQYQM) [CDP3-10]	+ (+: reaction-inhibiting activity between 30% and 50%)	+++ (+++: reaction-inhibiting activity = 70%)	+++ (+++: reaction-inhibiting activity = 70%)			
A E G E L R Q S D G A Y Q M (AEGELRQSDGAYQM) [CDP3-11]	− (−: reaction-inhibiting activity = 30%)	+ (+: reaction-inhibiting activity between 30% and 50%)	− (−: reaction-inhibiting activity = 30%)			
A E G E L R Q S D G Q A Q M (AEGELRQSDGQAQM) [CDP3-12]	+++ (+++: reaction-inhibiting activity = 70%)	+++ (+++: reaction-inhibiting activity = 70%)	+++ (+++: reaction-inhibiting activity = 70%)			
A E G E L R Q S D G Q Y A M (AEGELRQSDGQYAM) [CDP3-13]	+ (+: reaction-inhibiting activity between 30% and 50%)	+++ (+++: reaction-inhibiting activity = 70%)	++ (++: reaction-inhibiting activity between 50% and 70%)			
A E G E L R Q S D G Q Y Q A (AEGELRQSDGQYQA) [CDP3-14]	+++ (+++: reaction-inhibiting activity = 70%)	+++ (+++: reaction-inhibiting activity = 70%)	+++ (+++: reaction-inhibiting activity = 70%)			
AEGELGGIYQDLVSGDPA [CDP-4]				5% (1/20)	did not appreciably react	4.2% (2/48)
AEGELGLLAQQMDYADPA [CDP-1]				0% (0/20)	did not appreciably react	4.2% (2/48)
AEGELRQSDGQYQMGDPA [CDP-3]				0% (0/20)	did not appreciably react	0% (0/48)
AEGELYRWLPPSSAGDPA [CDP-2]				5% (1/20)	did not appreciably react	2.1% (1/48)
S E G E L R Q S D G Q Y Q M (SEGELRQSDGQYQM) [CPP3-1]	+++ (+++: reaction-inhibiting activity = 70%)	+++ (+++: reaction-inhibiting activity = 70%)	+++ (+++: reaction-inhibiting activity = 70%)			
